Publication PMC6405930, “Conservation of the Amyloid Interactome Across Diverse Fibrillar Structures” (Scientific Reports, 2019)

Key:
[1] = tested on: T1, Ab1 fibrils; experiment: Fibril incubation with plasma, quantitative MS/MS of bound proteins; type: binding, human; details: 50:1 w/w plasma protein:fibril
T1 construct: Synthetic amyloid β peptide 1–40 was purchased from Caslo Aps (Lyngby, Denmark); purchased Caslo Aps (Lyngby, Denmark); host or cells: synthetic peptide
Procedure: (§1) Plasma and CSF solutions were centrifuged (40,000 g, 20 min) to remove any aggregates. The protein concentration was determined using 280 nm absorbance assuming 1 Abs = 1 mg/mL. Samples with fibril material (20 μg), plasma (500 μg) or CSF (40 μg) proteins were prepared in 200 μL PBS buffer with 5 mM EDTA. Control samples (without fibril material) were prepared similarly. All samples were incubated at room temperature for one hour under gentle agitation. Fibrils and fibril-bound proteins were pelleted by centrifugation at 17,000 g for 30 minutes. The supernatant (175 μL) was removed and the aggregate was re-suspended in 175 μL PBS and pelleted again before further preparation for gel analysis and spin-filter assisted digest for quantitative MS/MS.
(§2) The fibril-protein pellets were transferred to spin-filters (0.22 μm), washed twice in PBS (100 μL) and once in 1 M NaCl (100 μL). The fibrils and fibril-bound proteins were dissolved by one-hour incubation in 100 μL 6 M guanidinium chloride followed by elution from the spin-filter. The eluted proteins were loaded onto a 3 kDa MWCO filter unit for filter-assisted unfolding, reduction, alkylation, and trypsin digestion. In brief, samples were washed twice in 8 M urea, once in 8 M urea with 50 mM DTT, once in 8 M urea with 50 mM iodoaceteamide, and twice in 8 M Urea. The filter units were dried by centrifugation (14,000 g in 30 minutes) after every addition. Trypsin digestion was carried out with 0.25 μg sequencing grade trypsin from Sigma Aldrich in 50 mM ammonium bicarbonate overnight at 37 °C. The tryptic peptides were collected by centrifugation, acidified with TFA (0.1%) and micro-purified using POROS R2 column material (Applied Biosystems) packed in P200 pipette tips (Sarstedt).
(§3) LC-MS/MS analyses were performed on an EASY-nLC II system (Thermo Fisher Scientific) connected to a TripleTOF 5600+ mass spectrometer (Sciex) equipped with a NanoSpray III source (Sciex) and operated under Analyst TF 1.6.0 control.
(§4) The micro-purified tryptic peptides were dissolved in 0.1% formic acid, injected and trapped on an in-house packed trap column (2 cm × 100 μm I.D) with RP ReproSil-Pur C18-AQ 3 μm resin (Dr. Maisch GmbH). Peptides were eluted from the trap column and separated on a 15 cm analytical column (75 μm i.d.) packed in-house in a pulled emitter with RP ReproSil-Pur C18-AQ 3 μm resin (Dr. Maisch GmbH). Elution from the analytical column was performed with a linear gradient from 5% to 35% phase B (90% acetonitrile with 0.1% formic acid) over 20 min for protein identification and 50 min for quantitative analysis, respectively.
(§5) All samples were analysed three times, yielding nine MS/MS experiments for each fibril for both plasma and CSF. For the area-based extracted ion chromatogram (XIC) quantification, the acquisition method was set up as an information-dependent acquisition (IDA) experiment collecting up to 25 MS/MS spectra in each 1.6 sec cycle using an exclusion window of 6 sec.
(§6) XIC quantification was based on the average ion intensity of the three most abundant peptides for each protein. Only proteins quantified in at least four out of nine MS/MS experiments per fibril were included in the quantification. The total ion scores were visualized after grouping the proteins according to function (Figure S11).
(§7) For each MS/MS experiment, the ion intensities of the individual proteins were normalized to the total ion intensity of that MS/MS experiment to achieve a relative protein composition. The contribution of each protein was averaged over all nine MS/MS experiments (Tables 1 and 2).

[2] = tested on: T2, Ab2 fibrils; experiment: as above; type: binding, human; details: 50:1 w/w plasma protein:fibril
T2 construct: Two structurally distinct fibrils of the Aβ(1–40) peptide associated with AD
Procedure: as §1, with “Samples with fibril material (20 μg), plasma (500 μg) or CSF (40 μg) proteins were prepared in 200 μL PBS buffer with 5 mM EDTA.” left out
as §2, §3, §4, §5, §6, §7

[3] = target: T3, glucagon fibrils (Homo sapiens, UniProt P01275); experiment: as above; type: binding; details: 50:1 w/w plasma protein:fibril
T3 construct: fibrils of the peptide hormone glucagon
T3 sequence (P01275 53-81 limits assumed): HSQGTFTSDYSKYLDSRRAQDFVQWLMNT
Procedure: as §1, with “Samples with fibril material (20 μg), plasma (500 μg) or CSF (40 μg) proteins were prepared in 200 μL PBS buffer with 5 mM EDTA.” left out
as §2, §3, §4, §5, §6, §7

[4] = target: T4, C-36 fibrils (Homo sapiens, UniProt P01009); experiment: as above; type: binding; details: 50:1 w/w plasma protein:fibril
T4 construct: the 36 residue C-terminal fragment of α1-antitrypsin (C-36)
T4 sequence (P01009 383-418 limits assumed): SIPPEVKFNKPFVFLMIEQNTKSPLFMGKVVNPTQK
Procedure: as §1, with “Samples with fibril material (20 μg), plasma (500 μg) or CSF (40 μg) proteins were prepared in 200 μL PBS buffer with 5 mM EDTA.” left out
as §2, §3, §4, §5, §6, §7

[5] = target: T5, αSN fibrils (Homo sapiens, UniProt P37840); experiment: as above; type: binding; set-up: key to Identification status of plasma protein bound: αSN: *: Identified, but not quantified; —: Not identified in any of the samples; details: for Relative composition of plasma proteins bound: αSN: 50:1 w/w plasma protein:fibril; for Identification status of plasma protein bound: αSN: symbol cells
Procedure: as §1, with “Samples with fibril material (20 μg), plasma (500 μg) or CSF (40 μg) proteins were prepared in 200 μL PBS buffer with 5 mM EDTA.” left out
as §2, §3, §4, §5, §6, §7

[6] = tested on: T6, FAS4-AD aggregates; experiment: as above; type: binding, human; set-up: key to Identification status of plasma protein bound: FAS4-AD: *: Identified, but not quantified; —: Not identified in any of the samples; details: for Relative composition of plasma proteins bound: FAS4-AD: 50:1 w/w plasma protein:fibril
T6 construct: aggregates of a mutated version of the FAS1-4 domain of TGFBIp
Procedure: as §1, with “Samples with fibril material (20 μg), plasma (500 μg) or CSF (40 μg) proteins were prepared in 200 μL PBS buffer with 5 mM EDTA.” left out
as §2, §3, §4, §5, §6, §7

[7] = tested on: T1, Ab1 fibrils; experiment: Fibril incubation with CSF, quantitative MS/MS of bound proteins; type: binding, human; details: 4:1 w/w CSF protein:fibril
Procedure: as §1, with “Samples with fibril material (20 μg), plasma (500 μg) or CSF (40 μg) proteins were prepared in 200 μL PBS buffer with 5 mM EDTA.” left out
as §2, §3, §4, §5, §6, §7

[8] = tested on: T2, Ab2 fibrils; experiment: as above; type: binding, human; details: 4:1 w/w CSF protein:fibril
Procedure: as §1, with “Samples with fibril material (20 μg), plasma (500 μg) or CSF (40 μg) proteins were prepared in 200 μL PBS buffer with 5 mM EDTA.” left out
as §2, §3, §4, §5, §6, §7

[9] = target: T3, glucagon fibrils; experiment: as above; type: binding; details: 4:1 w/w CSF protein:fibril
Procedure: as §1, with “Samples with fibril material (20 μg), plasma (500 μg) or CSF (40 μg) proteins were prepared in 200 μL PBS buffer with 5 mM EDTA.” left out
as §2, §3, §4, §5, §6, §7

[10] = target: T4, C-36 fibrils; experiment: as above; type: binding; set-up: key to Identification status of CSF protein bound: C-36: *: Identified, but not quantified; —: Not identified in any of the samples; details: for Relative composition of CSF proteins bound: C-36: 4:1 w/w CSF protein:fibril
Procedure: as §1, with “Samples with fibril material (20 μg), plasma (500 μg) or CSF (40 μg) proteins were prepared in 200 μL PBS buffer with 5 mM EDTA.” left out
as §2, §3, §4, §5, §6, §7

[11] = target: T5, αSN fibrils; experiment: as above; type: binding; set-up: key to Identification status of CSF protein bound: αSN: *: Identified, but not quantified; —: Not identified in any of the samples; details: for Relative composition of CSF proteins bound: αSN: 4:1 w/w CSF protein:fibril; for Identification status of CSF protein bound: αSN: symbol cells
Procedure: as §1, with “Samples with fibril material (20 μg), plasma (500 μg) or CSF (40 μg) proteins were prepared in 200 μL PBS buffer with 5 mM EDTA.” left out
as §2, §3, §4, §5, §6, §7

[12] = tested on: T6, FAS4-AD aggregates; experiment: as above; type: binding, human; set-up: key to Identification status of CSF protein bound: FAS4-AD: *: Identified, but not quantified; —: Not identified in any of the samples; details: for Identification status of CSF protein bound: FAS4-AD: symbol cells; for Relative composition of CSF proteins bound: FAS4-AD: 4:1 w/w CSF protein:fibril
Procedure: as §1, with “Samples with fibril material (20 μg), plasma (500 μg) or CSF (40 μg) proteins were prepared in 200 μL PBS buffer with 5 mM EDTA.” left out
as §2, §3, §4, §5, §6, §7

Substance: Ig γ-1 chain C region: plasma/CSF protein bound to fibrils
- Relative composition of plasma proteins bound: Ab1 [1]: 1.1 ± 0.1 % of total protein
- Relative composition of plasma proteins bound: Ab2 [2]: 1.2 ± 0.1 % of total protein
- Relative composition of plasma proteins bound: Glucagon [3]: 1.2 ± 0.2 % of total protein
- Relative composition of plasma proteins bound: C-36 [4]: 1.9 ± 0.2 % of total protein
- Relative composition of plasma proteins bound: αSN [5]: 1.9 ± 0.9 % of total protein
- Relative composition of plasma proteins bound: FAS4-AD [6]: 9.5 ± 2.6 % of total protein
- Relative composition of CSF proteins bound: Ab1 [7]: 2.5 ± 0.1 % of total protein
- Relative composition of CSF proteins bound: Ab2 [8]: 3.1 ± 0.3 % of total protein
- Relative composition of CSF proteins bound: Glucagon [9]: 1.4 ± 0.5 % of total protein
- Relative composition of CSF proteins bound: C-36 [10]: 1.4 ± 0.2 % of total protein
- Relative composition of CSF proteins bound: αSN [11]: 4.2 ± 0.4 % of total protein
- Identification status of CSF protein bound: FAS4-AD [12]: *

Substance: Complement C3: plasma/CSF protein bound to fibrils
- Relative composition of plasma proteins bound: Ab1 [1]: 0.4 ± 0.0 % of total protein
- Relative composition of plasma proteins bound: Ab2 [2]: 0.6 ± 0.1 % of total protein
- Relative composition of plasma proteins bound: Glucagon [3]: 2.3 ± 0.2 % of total protein
- Relative composition of plasma proteins bound: C-36 [4]: 0.2 ± 0.0 % of total protein
- Identification status of plasma protein bound: αSN [5]: *
- Identification status of plasma protein bound: FAS4-AD ([6]; symbol cells): *
- Relative composition of CSF proteins bound: Ab1 [7]: 0.3 ± 0.1 % of total protein
- Relative composition of CSF proteins bound: Ab2 [8]: 0.3 ± 0.1 % of total protein
- Relative composition of CSF proteins bound: Glucagon [9]: 0.8 ± 0.2 % of total protein
- Identification status of CSF protein bound: C-36 ([10]; symbol cells): *
- Identification status of CSF protein bound: αSN [11]: —
- Identification status of CSF protein bound: FAS4-AD [12]: —

Substance: Clusterin: plasma/CSF protein bound to fibrils
- Relative composition of plasma proteins bound: Ab1 [1]: 1.1 ± 0.1 % of total protein
- Relative composition of plasma proteins bound: Ab2 [2]: 2.2 ± 1.2 % of total protein
- Relative composition of plasma proteins bound: Glucagon [3]: 0.5 ± 0.1 % of total protein
- Relative composition of plasma proteins bound: C-36 [4]: 3.5 ± 0.9 % of total protein
- Relative composition of plasma proteins bound: αSN [5]: 1.6 ± 0.9 % of total protein
- Relative composition of plasma proteins bound: FAS4-AD [6]: 7.9 ± 4.2 % of total protein
- Relative composition of CSF proteins bound: Ab1 [7]: 9.4 ± 1.0 % of total protein
- Relative composition of CSF proteins bound: Ab2 [8]: 6.9 ± 1.6 % of total protein
- Relative composition of CSF proteins bound: Glucagon [9]: 2.4 ± 0.6 % of total protein
- Relative composition of CSF proteins bound: C-36 [10]: 8.6 ± 1.7 % of total protein
- Relative composition of CSF proteins bound: αSN [11]: 12.2 ± 2.9 % of total protein
- Relative composition of CSF proteins bound: FAS4-AD [12]: 22.8 ± 11.2 % of total protein
- Relative composition of CSF proteins bound: FAS4-AD ([12]; listed as clusterin): 22.8 % of total protein

Substance: Apolipoprotein D: plasma/CSF protein bound to fibrils
- Relative composition of plasma proteins bound: Ab1 [1]: 0.1 ± 0.0 % of total protein
- Relative composition of plasma proteins bound: Ab2 [2]: 0.3 ± 0.0 % of total protein
- Relative composition of plasma proteins bound: Glucagon [3]: 0.3 ± 0.1 % of total protein
- Relative composition of plasma proteins bound: C-36 [4]: 0.9 ± 0.1 % of total protein
- Identification status of plasma protein bound: αSN [5]: *
- Relative composition of plasma proteins bound: FAS4-AD [6]: 1.1 ± 0.1 % of total protein
- Relative composition of CSF proteins bound: Ab1 [7]: 8.7 ± 0.4 % of total protein
- Relative composition of CSF proteins bound: Ab2 [8]: 11.2 ± 0.6 % of total protein
- Relative composition of CSF proteins bound: Glucagon [9]: 1.8 ± 0.3 % of total protein
- Relative composition of CSF proteins bound: C-36 [10]: 9.0 ± 2.3 % of total protein
- Relative composition of CSF proteins bound: αSN [11]: 3.4 ± 0.5 % of total protein
- Relative composition of CSF proteins bound: FAS4-AD [12]: 5.7 ± 0.4 % of total protein

Substance: Fibronectin
- Relative composition of plasma proteins bound: C-36 [4]: 0.2 ± 0.0 % of total protein
- Relative composition of plasma proteins bound: αSN [5]: 1.0 ± 0.0 % of total protein
- Relative composition of CSF proteins bound: Ab1 [7]: 0.9 ± 0.0 % of total protein
- Relative composition of CSF proteins bound: Ab2 [8]: 1.2 ± 0.3 % of total protein
- Relative composition of CSF proteins bound: Glucagon [9]: 0.2 ± 0.1 % of total protein
- Relative composition of CSF proteins bound: C-36 [10]: 0.7 ± 0.1 % of total protein
- Identification status of CSF protein bound: αSN [11]: *
- Identification status of CSF protein bound: FAS4-AD [12]: —
